Experiments:
Assay in all cases: Kinase binding assay (kinase-tagged T7 phage, affinity beads, qPCR), Kd
FGFR3 = target: T1, FGFR3 (Homo sapiens, UniProt P22607); conditions: read-out: FGFR3 (Kd nM)
T1 construct: made in house; host or cells: E. coli (BL21-derived), T7 phage
Protocol: (§1) Kinase-tagged T7 phage strains were prepared in an E. coli host derived from the BL21 strain. E. coli were grown to log-phase and infected with T7 phage and incubated with shaking at 32° C. until lysis. The lysates were centrifuged and filtered to remove cell debris. Streptavidin-coated magnetic beads were treated with biotinylated small molecule ligands for 30 minutes at room temperature to generate affinity resins for kinase assays. The liganded beads were blocked with excess biotin and washed with blocking buffer SeaBlock (Pierce), 1% BSA, 0.05% Tween 20, 1 mM DTT to remove unbound ligand and to reduce non-specific binding.
(§2) Test compounds were prepared as 111× stocks in 100% DMSO. Kds were determined using an 11-point 3-fold compound dilution series with three DMSO control points. […] The compounds were then diluted directly into the assays such that the final concentration of DMSO was 0.9%. All reactions performed in polypropylene 384-well plate. Each was a final volume of 0.02 ml. […] The kinase concentration in the eluates was measured by qPCR.
(§3) Binding constants were calculated with a standard dose-response curve using the Hill equation: […]
(§4) The Hill Slope was set to −1. Curves were fitted using a non-linear least square fit with the Levenberg-Marquardt algorithm.

FGFR1 = target: T2, FGFR1 (Homo sapiens, UniProt P11362); conditions: read-out: FGFR1 (Kd nM)
T2 construct: made in house; host or cells: E. coli (BL21-derived), T7 phage
T2 sequence (P11362 22-822): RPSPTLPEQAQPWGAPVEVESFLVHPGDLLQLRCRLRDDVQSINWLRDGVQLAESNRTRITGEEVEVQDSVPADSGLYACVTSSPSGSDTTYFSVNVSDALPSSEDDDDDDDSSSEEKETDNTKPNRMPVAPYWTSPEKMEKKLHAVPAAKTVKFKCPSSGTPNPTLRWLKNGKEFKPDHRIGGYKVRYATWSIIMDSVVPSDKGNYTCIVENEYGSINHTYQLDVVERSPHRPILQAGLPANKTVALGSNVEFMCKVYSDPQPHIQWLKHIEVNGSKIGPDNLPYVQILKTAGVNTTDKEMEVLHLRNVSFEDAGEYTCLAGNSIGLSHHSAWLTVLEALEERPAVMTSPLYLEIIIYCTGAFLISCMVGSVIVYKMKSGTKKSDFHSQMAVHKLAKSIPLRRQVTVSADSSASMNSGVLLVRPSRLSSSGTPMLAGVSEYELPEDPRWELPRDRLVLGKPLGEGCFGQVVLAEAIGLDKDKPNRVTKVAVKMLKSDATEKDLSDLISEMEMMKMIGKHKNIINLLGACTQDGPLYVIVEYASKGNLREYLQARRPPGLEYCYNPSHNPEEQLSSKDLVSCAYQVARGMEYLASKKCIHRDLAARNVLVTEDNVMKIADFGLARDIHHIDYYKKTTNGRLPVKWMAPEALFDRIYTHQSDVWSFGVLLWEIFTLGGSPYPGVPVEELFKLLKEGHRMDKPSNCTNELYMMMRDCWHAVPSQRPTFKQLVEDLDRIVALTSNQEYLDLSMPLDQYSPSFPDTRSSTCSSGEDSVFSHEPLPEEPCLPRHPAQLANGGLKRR
Protocol: as §1, §2, §3, §4

FGFR2 = target: T3, FGFR2 (Homo sapiens, UniProt P21802); conditions: read-out: FGFR2 (Kd nM)
T3 construct: made in house; host or cells: E. coli (BL21-derived), T7 phage
T3 sequence (P21802 22-821): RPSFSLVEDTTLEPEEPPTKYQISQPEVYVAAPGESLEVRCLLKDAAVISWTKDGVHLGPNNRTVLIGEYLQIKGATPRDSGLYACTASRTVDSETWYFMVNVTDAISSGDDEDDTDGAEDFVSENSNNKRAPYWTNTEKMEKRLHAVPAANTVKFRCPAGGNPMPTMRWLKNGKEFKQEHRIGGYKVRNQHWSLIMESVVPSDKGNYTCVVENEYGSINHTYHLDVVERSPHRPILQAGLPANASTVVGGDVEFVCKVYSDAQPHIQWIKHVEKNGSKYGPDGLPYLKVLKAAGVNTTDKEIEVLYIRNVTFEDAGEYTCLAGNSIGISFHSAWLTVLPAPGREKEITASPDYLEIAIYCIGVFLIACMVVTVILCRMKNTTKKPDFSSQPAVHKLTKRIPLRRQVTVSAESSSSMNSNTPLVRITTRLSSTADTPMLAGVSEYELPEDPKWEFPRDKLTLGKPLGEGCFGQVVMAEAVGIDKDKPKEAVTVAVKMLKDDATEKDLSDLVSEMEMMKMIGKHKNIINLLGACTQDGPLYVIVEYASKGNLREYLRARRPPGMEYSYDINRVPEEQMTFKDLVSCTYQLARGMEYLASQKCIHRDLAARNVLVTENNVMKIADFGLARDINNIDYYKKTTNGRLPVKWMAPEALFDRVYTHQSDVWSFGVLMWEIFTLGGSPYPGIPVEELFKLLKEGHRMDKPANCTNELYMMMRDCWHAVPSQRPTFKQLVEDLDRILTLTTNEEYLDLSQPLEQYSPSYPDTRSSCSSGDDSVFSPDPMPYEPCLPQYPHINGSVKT
Protocol: as §1, §2, §3, §4

FGFR4 = target: T4, FGFR4 (Homo sapiens, UniProt P22455); conditions: read-out: FGFR4 (Kd nM)
T4 construct: made in house; host or cells: E. coli (BL21-derived), T7 phage
T4 sequence (P22455 22-802): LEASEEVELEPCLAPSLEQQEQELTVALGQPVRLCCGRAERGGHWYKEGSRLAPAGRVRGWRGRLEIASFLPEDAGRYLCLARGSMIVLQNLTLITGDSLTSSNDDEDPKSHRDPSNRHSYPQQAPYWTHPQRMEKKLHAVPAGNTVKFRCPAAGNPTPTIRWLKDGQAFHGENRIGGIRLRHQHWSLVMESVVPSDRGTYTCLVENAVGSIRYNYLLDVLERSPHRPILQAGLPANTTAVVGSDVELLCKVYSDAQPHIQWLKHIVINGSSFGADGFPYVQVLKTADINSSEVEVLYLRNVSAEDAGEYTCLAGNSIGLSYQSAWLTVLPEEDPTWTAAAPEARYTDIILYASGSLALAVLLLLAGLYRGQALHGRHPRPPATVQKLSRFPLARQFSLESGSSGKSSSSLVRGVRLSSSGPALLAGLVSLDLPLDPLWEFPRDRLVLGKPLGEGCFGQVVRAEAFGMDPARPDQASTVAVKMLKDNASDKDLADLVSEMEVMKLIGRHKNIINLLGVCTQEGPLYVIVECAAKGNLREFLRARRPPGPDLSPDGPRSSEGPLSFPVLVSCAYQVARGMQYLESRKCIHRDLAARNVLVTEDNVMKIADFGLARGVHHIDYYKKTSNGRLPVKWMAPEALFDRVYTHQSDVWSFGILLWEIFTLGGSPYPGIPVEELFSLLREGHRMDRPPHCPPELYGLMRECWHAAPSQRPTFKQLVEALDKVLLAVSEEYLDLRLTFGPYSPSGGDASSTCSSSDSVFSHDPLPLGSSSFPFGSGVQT
Protocol: as §1, §2, §3, §4

FGFR3 (V555M) = target: T5, FGFR3 (V555M) (Homo sapiens, UniProt P22607, V555M); conditions: V555M mutant; read-out: FGFR3 (V555M) (Kd nM)
T5 construct: made in house; host or cells: E. coli (BL21-derived), T7 phage
T5 sequence (P22607 23-806 V555M): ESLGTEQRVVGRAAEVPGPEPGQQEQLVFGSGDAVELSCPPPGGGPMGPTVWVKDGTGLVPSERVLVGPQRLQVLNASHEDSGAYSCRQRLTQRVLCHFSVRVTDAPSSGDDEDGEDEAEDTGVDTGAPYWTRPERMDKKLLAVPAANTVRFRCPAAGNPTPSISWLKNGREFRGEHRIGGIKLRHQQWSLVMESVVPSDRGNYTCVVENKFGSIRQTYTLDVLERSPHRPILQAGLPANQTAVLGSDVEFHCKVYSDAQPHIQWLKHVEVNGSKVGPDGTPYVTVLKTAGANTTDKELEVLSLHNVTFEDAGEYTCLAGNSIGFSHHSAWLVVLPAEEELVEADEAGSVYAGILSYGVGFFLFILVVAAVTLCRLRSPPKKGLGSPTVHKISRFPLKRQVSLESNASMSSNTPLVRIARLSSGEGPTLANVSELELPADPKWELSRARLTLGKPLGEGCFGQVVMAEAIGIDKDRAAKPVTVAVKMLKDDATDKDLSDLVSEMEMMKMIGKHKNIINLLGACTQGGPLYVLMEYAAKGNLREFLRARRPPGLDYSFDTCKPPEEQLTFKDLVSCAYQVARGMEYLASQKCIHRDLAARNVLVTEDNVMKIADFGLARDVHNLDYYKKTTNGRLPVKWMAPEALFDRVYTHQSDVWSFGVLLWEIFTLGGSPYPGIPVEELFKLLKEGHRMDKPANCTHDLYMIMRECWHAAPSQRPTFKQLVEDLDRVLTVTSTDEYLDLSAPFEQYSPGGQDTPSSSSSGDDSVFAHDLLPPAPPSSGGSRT
Protocol: as §1, §2, §3, §4

T1 sequence (P22607 23-806): as the sequence (P22607 23-806 V555M) above, with M533V counted along it

Row | SMILES | Kd (FGFR3) | Kd (FGFR1) | Kd (FGFR2) | Kd (FGFR4) | Kd (FGFR3 (V555M))
1 | C[C@@H](Oc1cc2c(-c3cnc(N4CC5(CC5)C4)c(C#N)c3)n[nH]c2cc1F)c1c(Cl)cncc1Cl [Example 5, (R)-5-(5-(1-(3,5-Dichloropyridin-4-yl)ethoxy)-6-fluoro-1H-indazol-3-yl)-2-(5-azaspiro[2.3]hexan-5-yl)nicotinonitrile] | 50 to 300 nM | > 1000 nM | > 1000 nM | 1 to 50 nM | 50 to 300 nM
2 | CCNC1(C)CN(c2ncc(-c3n[nH]c4ccc(O[C@H](C)c5c(Cl)cnc(C)c5Cl)cc34)cc2C#N)C1 [Example 40, 5-[5-[(1R)-1-(3,5-dichloro-2-methyl-4-pyridyl)ethoxy]-1H-indazol-3-yl]-2-[3-(ethylamino)-3-methyl-azetidin-1-yl]pyridine-3-carbonitrile] | 1 to 50 nM | 50 to 300 nM | 50 to 300 nM | 1 to 50 nM | 1 to 50 nM
3 | COc1cc2[nH]nc(-c3cnc(N4CCC4)c(F)c3)c2cc1O[C@H](C)c1c(Cl)cnc(C)c1Cl [Example 58, 3-[6-(azetidin-1-yl)-5-fluoro-3-pyridyl]-5-[(1R)-1-(3,5-dichloro-2-methyl-4-pyridyl)ethoxy]-6-methoxy-1H-indazole] | 1 to 50 nM | 50 to 300 nM | 1 to 50 nM | 1 to 50 nM | 1 to 50 nM
4 | C[C@@H](Oc1cc2c(-c3ccc(N4CC(C)(NC5CCC5)C4)nc3)n[nH]c2cc1F)c1c(Cl)cncc1Cl [Example 68, N-cyclobutyl-1-[5-[5-[(1R)-1-(3,5-dichloro-4-pyridyl)ethoxy]-6-fluoro-1H-indazol-3-yl]-2-pyridyl]-3-methyl-azetidin-3-amine] | 1 to 50 nM | 1 to 50 nM | 1 to 50 nM | 1 to 50 nM | 1 to 50 nM
5 | C[C@@H](Oc1ccc2[nH]nc(-c3ccc(N4CC(C)(CNS(C)(=O)=O)C4)nc3)c2c1)c1c(Cl)cncc1Cl [Example 69, (R)-N-((1-(5-(5-(1-(3,5-dichloropyridin-4-yl)ethoxy)-1H-indazol-3-yl)pyridin-2-yl)-3-methylazetidin-3-yl)methyl)methane-sulfonamide] | 1 to 50 nM | 1 to 50 nM | 1 to 50 nM | 1 to 50 nM | 1 to 50 nM
6 | COCCN(C)C1(C)CN(c2ncc(-c3n[nH]c4ccc(O[C@H](C)c5c(Cl)cncc5Cl)cc34)cn2)C1 [Example 79, (R)-1-(5-(5-(1-(3,5-dichloropyridin-4-yl)ethoxy)-1H-indazol-3-yl)pyrimidin-2-yl)-N-(2-methoxyethyl)-N,3-dimethylazetidin-3-amine] | 1 to 50 nM | 1 to 50 nM | 1 to 50 nM | 1 to 50 nM | 1 to 50 nM
7 | COc1cc2[nH]nc(-c3cnc(N4CC(C)(CNC(C)C)C4)nc3)c2cc1O[C@H](C)c1c(Cl)cncc1Cl [Example 84, (R)-N-((1-(5-(5-(1-(3,5-dichloropyridin-4-yl)ethoxy)-6-methoxy-1H-indazol-3-yl)pyrimidin-2-yl)-3-methylazetidin-3-yl)methyl)propan-2-amine] | 1 to 50 nM | 1 to 50 nM | 1 to 50 nM | 1 to 50 nM | 1 to 50 nM
8 | COc1cc2[nH]nc(-c3cnc(N4CC(C)(NCCO)C4)nc3)c2cc1O[C@H](C)c1c(Cl)cncc1Cl [Example 86, (R)-2-((1-(5-(5-(1-(3,5-dichloropyridin-4-yl)ethoxy)-6-methoxy-1H-indazol-3-yl)pyrimidin-2-yl)-3-methylazetidin-3-yl)amino)ethan-1-ol] | 1 to 50 nM | 1 to 50 nM | 1 to 50 nM | 1 to 50 nM | 1 to 50 nM
9 | C[C@@H](Oc1ccc2[nH]nc(-c3ccc(N4CC(C)(N5CCOCC5)C4)nc3)c2c1)c1c(Cl)cncc1Cl [Example 94, 4-[1-[5-[5-[(1R)-1-(3,5-dichloro-4-pyridyl)ethoxy]-1H-indazol-3-yl]-2-pyridyl]-3-methyl-azetidin-3-yl]morpholine] | 1 to 50 nM | 1 to 50 nM | 1 to 50 nM | 1 to 50 nM | 1 to 50 nM
10 | C[C@@H](Oc1ccc2[nH]nc(-c3cnc(N4CC(C)(N5CCCC5)C4)c(F)c3)c2c1)c1c(Cl)cncc1Cl [Example 107, (R)-5-(1-(3,5-dichloropyridin-4-yl)ethoxy)-3-(5-fluoro-6-(3-methyl-3-(pyrrolidin-1-yl)azetidin-1-yl)pyridin-3-yl)-1H-indazole] | 1 to 50 nM | 1 to 50 nM | 1 to 50 nM | 1 to 50 nM | 1 to 50 nM
11 | C[C@@H](Oc1ccc2[nH]nc(-c3cnc(N4CC(C)(NCC5(O)CC5)C4)c(C#N)c3)c2c1)c1c(Cl)cncc1Cl [Example 120, (R)-5-(5-(1-(3,5-dichloropyridin-4-yl)ethoxy)-1H-indazol-3-yl)-2-(3-(((1-hydroxycyclopropyl)meth-yl)amino)-3-methylazetidin-1-yl)nicotinonitrile] | 1 to 50 nM | 1 to 50 nM | 50 to 300 nM | 1 to 50 nM | 1 to 50 nM
12 | C[C@@H](Oc1ccc2[nH]nc(-c3ccc(N4CC(C)(NCC(F)F)C4)nc3)c2c1)c1c(Cl)cncc1Cl [Example 125, 1-[5-[5-[(1R)-1-(3,5-dichloro-4-pyridyl)ethoxy]-1H-indazol-3-yl]-2-pyridyl]-N-(2,2-difluoroethyl)-3-methyl-azetidin-3-amine] | 1 to 50 nM | 1 to 50 nM | 1 to 50 nM | 1 to 50 nM | 1 to 50 nM
13 | C[C@@H](Oc1cc2c(-c3cnc(N4CC(C)(N(C)C)C4)c(F)c3)n[nH]c2cc1F)c1c(Cl)cncc1Cl [Example 130, 1-[5-[5-[(1R)-1-(3,5-dichloro-4-pyridyl)ethoxy]-6-fluoro-1H-indazol-3-yl]-3-fluoro-2-pyridyl]-N,N,3-trimethyl-azetidin-3-amine] | 1 to 50 nM | 1 to 50 nM | 1 to 50 nM | 1 to 50 nM | 1 to 50 nM
14 | C[C@@H](Oc1ccc2[nH]nc(-c3ccc(N4CC(C)(N5CC(C)(O)C5)C4)nc3)c2c1)c1c(Cl)cncc1Cl [Example 157, 1-[1-[5-[5-[(1R)-1-(3,5-dichloro-4-pyridyl)ethoxy]-1H-indazol-3-yl]-2-pyridyl]-3-methyl-azetidin-3-yl]-3-methyl-azetidin-3-ol] | 1 to 50 nM | 1 to 50 nM | 1 to 50 nM | 1 to 50 nM | 1 to 50 nM

More lines, now with the values ahead:

Row | Kd (FGFR3) | Kd (FGFR1) | Kd (FGFR2) | Kd (FGFR4) | Kd (FGFR3 (V555M)) | SMILES
15 | 1 to 50 nM | 1 to 50 nM | 1 to 50 nM | 1 to 50 nM | 1 to 50 nM | COCCN(C)C1(C)CN(c2ncc(-c3n[nH]c4ccc(O[C@H](C)c5c(Cl)cncc5Cl)cc34)cc2F)C1 [Example 85, (R)-1-(5-(5-(1-(3,5-dichloropyridin-4-yl)ethoxy)-1H-indazol-3-yl)-3-fluoropyridin-2-yl)-N-(2-methoxyethyl)-N,3-dimethylazetidin-3-amine]
16 | 1 to 50 nM | 1 to 50 nM | 1 to 50 nM | 1 to 50 nM | 1 to 50 nM | C[C@@H](Oc1ccc2[nH]nc(-c3ccc(N4CC(C)(OCCO)C4)nc3)c2c1)c1c(Cl)cncc1Cl [Example 92, (R)-2-((1-(5-(5-(1-(3,5-dichloropyridin-4-yl)ethoxy)-1H-indazol-3-yl)pyridin-2-yl)-3-methylazetidin-3-yl)oxy)ethan-1-ol]
17 | 1 to 50 nM | 1 to 50 nM | 1 to 50 nM | 1 to 50 nM | 1 to 50 nM | C[C@@H](O)CNC1(C)CN(c2ncc(-c3n[nH]c4ccc(O[C@H](C)c5c(Cl)cncc5Cl)cc34)cc2F)C1 [Example 104, (R)-1-((1-(5-(5-((R)-1-(3,5-dichloropyridin-4-yl)ethoxy)-1H-indazol-3-yl)-3-fluoropyridin-2-yl)-3-methylazetidin-3-yl)amino)propan-2-ol]
18 | 1 to 50 nM | 1 to 50 nM | 1 to 50 nM | 1 to 50 nM | 1 to 50 nM | C[C@@H](Oc1ccc2[nH]nc(-c3cnc(N4CC(C)(CP(C)(C)=O)C4)c(F)c3)c2c1)c1c(Cl)cncc1Cl [Example 121, (R)-((1-(5-(5-(1-(3,5-dichloropyridin-4-yl)ethoxy)-1H-indazol-3-yl)-3-fluoropyridin-2-yl)-3-methylazetidin-3-yl)methyl)dimethylphos-phine oxide]
19 | 1 to 50 nM | 1 to 50 nM | 1 to 50 nM | 1 to 50 nM | 1 to 50 nM | C[C@@H](Oc1ccc2[nH]nc(-c3cnc(N4CC(C)(C(=O)NCCO)C4)c(F)c3)c2c1)c1c(Cl)cncc1Cl [Example 162, 1-[5-[5-[(1R)-1-(3,5-dichloro-4-pyridyl)ethoxy]-1H-indazol-3-yl]-3-fluoro-2-pyridyl]-N-(2-hydroxyethyl)-3-methyl-azetidine-3-carboxamide]
20 | 1 to 50 nM | 1 to 50 nM | 1 to 50 nM | 1 to 50 nM | 1 to 50 nM | C[C@@H](Oc1cc2c(-c3cnc(N4CC(C)(N5CCC5)C4)c(F)c3)n[nH]c2cc1F)c1c(Cl)cncc1Cl [Example 163, 3-[6-[3-(azetidin-1-yl)-3-methyl-azetidin-1-yl]-5-fluoro-3-pyridyl]-5-[(1R)-1-(3,5-dichloro-4-pyridyl)ethoxy]-6-fluoro-1H-indazole]
